HELM strings list units from the 5' end as sugar, base in round brackets, then linkage (d deoxyribose, r ribose, m 2'-O-methyl, p phosphodiester). Strings are as the collection lists them, not checked against the first reports. ss, as = sense and antisense strand; [s4r] = 4'-thioribose; [fl2r] = 2'-fluoro
Further: test system not given here.

The conditions of the series: siRNA.
In turn, “RNA1{r(A)p.r(G)p.r(A)p.r(G)p.r(A)p.r(G)p.r(G)p.r(U)p.r(G)p.r(G)p.r(A)p.r(G)p.r(G)p.m(U)p.r(A)p.r(U)p.r(C)p.r(U)p.r(C)p.r(T)p.r(T)}|RNA2{r(G)p.r(A)p.r(G)p.r(A)p.m(U)p.r(A)p.r(C)p.r(C)p.r(U)p.r(C)p.r(C)p.r(A)p.r(C)p.r(C)p.r(U)p.r(C)p.r(U)p.r(C)p.r(U)p.r(T)p.r(T)}$$$RNA1{StrandType:ss}|RNA2{StrandType:as}$” displayed a target mRNA knockdown of 90%. Regarding “RNA1{r(A)p.r(A)p.r(C)p.r(A)p.r(G)p.r(U)p.r(C)p.r(C)p.r(U)p.m(U)p.r(A)p.r(G)p.r(C)p.m(U)p.r(A)p.r(C)p.r(G)p.r(C)p.m(U)p.r(T)p.r(T)}|RNA2{r(A)p.r(G)p.r(C)p.r(G)p.m(U)p.r(A)p.r(G)p.r(C)p.r(U)p.r(A)p.r(A)p.r(G)p.r(G)p.r(A)p.r(C)p.r(U)p.r(G)p.r(U)p.r(U)p.r(T)p.r(T)}$$$RNA1{StrandType:ss}|RNA2{StrandType:as}$”, the target mRNA knockdown worked out at 82%.

On to “RNA1{[s4r](C)p.[s4r](G)p.[s4r](U)p.[s4r](A)p.r(C)p.r(G)p.r(C)p.r(G)p.r(G)p.r(A)p.r(A)p.r(U)p.r(A)p.r(C)p.r(U)p.[s4r](U)p.[s4r](C)p.[s4r](G)p.[s4r](A)p.r(T)p.r(T)}|RNA2{[s4r](U)p.[s4r](C)p.[s4r](G)p.[s4r](A)p.r(A)p.r(G)p.r(U)p.r(A)p.r(U)p.r(U)p.r(C)p.r(C)p.r(G)p.r(C)p.r(G)p.[s4r](U)p.[s4r](A)p.[s4r](C)p.[s4r](G)p.r(T)p.r(T)}$$$RNA1{StrandType:ss}|RNA2{StrandType:as}$”, for which the target mRNA knockdown was 0%. On to “RNA1{m(U)p.r(A)p.r(A)p.r(A)p.r(G)p.r(C)p.m(U)p.r(G)p.r(G)p.r(A)p.r(A)p.r(A)p.r(G)p.r(G)p.r(G)p.r(A)p.r(C)p.r(G)p.r(G)p.r(T)p.r(T)}|RNA2{r(C)p.r(C)p.r(G)p.r(U)p.r(C)p.r(C)p.r(C)p.r(U)p.r(U)p.r(U)p.r(C)p.m(C)p.r(A)p.r(G)p.r(C)p.r(U)p.r(U)p.m(U)p.r(A)p.r(T)p.r(T)}$$$RNA1{StrandType:ss}|RNA2{StrandType:as}$”, for which the target mRNA knockdown came to 65%.

The substance “RNA1{[s4r](C)p.[s4r](G)p.[s4r](U)p.[s4r](A)p.[s4r](C)p.[s4r](G)p.r(C)p.r(G)p.r(G)p.r(A)p.r(A)p.r(U)p.r(A)p.[s4r](C)p.[s4r](U)p.[s4r](U)p.[s4r](C)p.[s4r](G)p.[s4r](A)p.r(T)p.r(T)}|RNA2{[s4r](U)p.[s4r](C)p.r(G)p.r(A)p.r(A)p.r(G)p.r(U)p.r(A)p.r(U)p.r(U)p.r(C)p.r(C)p.r(G)p.r(C)p.r(G)p.r(U)p.r(A)p.[s4r](C)p.[s4r](G)p.r(T)p.r(T)}$$$RNA1{StrandType:ss}|RNA2{StrandType:as}$” displayed a target mRNA knockdown of 28.6%. For the substance “RNA1{m(A)p.r(U)p.m(C)p.r(C)p.m(U)p.r(G)p.m(C)p.r(A)p.m(G)p.r(A)p.m(A)p.r(G)p.m(A)p.r(A)p.m(G)p.r(C)p.m(C)p.r(U)p.m(C)p.r(T)p.r(T)}|RNA2{r(G)p.r(A)p.r(G)p.r(G)p.m(C)p.r(U)p.r(U)p.m(C)p.r(U)p.r(U)p.m(C)p.r(U)p.r(G)p.m(C)p.r(A)p.r(G)p.r(G)p.r(A)p.r(U)p.r(T)p.r(T)}$$$RNA1{StrandType:ss}|RNA2{StrandType:as}$”, the target mRNA knockdown turned out to be 37%. As to “RNA1{r(G)p.r(G)p.r(G)p.r(A)p.r(A)p.r(A)p.r(C)p.r(U)p.r(G)p.r(A)p.r(A)p.r(A)p.r(G)p.r(G)p.r(C)p.[fl2r](U)p.r(A)p.r(U)p.r(G)p.r(T)p.r(T)}|RNA2{r(C)p.r(A)p.r(U)p.r(A)p.r(G)p.r(C)p.r(C)p.r(U)p.r(U)p.r(U)p.r(C)p.r(A)p.r(G)p.r(U)p.r(U)p.r(U)p.r(C)p.r(C)p.r(C)p.r(T)p.r(T)}$$$RNA1{StrandType:ss}|RNA2{StrandType:as}$”, the target mRNA knockdown was found to be 50%. The result for “RNA1{r(A)p.r(A)p.r(C)p.r(U)p.r(U)p.r(C)p.m(U)p.r(G)p.r(G)p.r(G)p.r(A)p.r(G)p.r(C)p.r(C)p.r(U)p.r(C)p.m(C)p.r(A)p.r(A)p.r(T)p.r(T)}|RNA2{r(U)p.m(U)p.r(G)p.r(G)p.r(A)p.r(G)p.r(G)p.r(C)p.r(U)p.r(C)p.r(C)p.m(C)p.r(A)p.r(G)p.r(A)p.r(A)p.r(G)p.r(U)p.r(U)p.r(T)p.r(T)}$$$RNA1{StrandType:ss}|RNA2{StrandType:as}$” reads 69%. “RNA1{[s4r](C)p.[s4r](G)p.[s4r](U)p.[s4r](A)p.[s4r](C)p.[s4r](G)p.r(C)p.r(G)p.r(G)p.r(A)p.r(A)p.r(U)p.r(A)p.[s4r](C)p.[s4r](U)p.[s4r](U)p.[s4r](C)p.[s4r](G)p.[s4r](A)p.r(T)p.r(T)}|RNA2{[s4r](U)p.[s4r](C)p.[s4r](G)p.[s4r](A)p.[s4r](A)p.[s4r](G)p.r(U)p.r(A)p.r(U)p.r(U)p.r(C)p.r(C)p.r(G)p.[s4r](C)p.[s4r](G)p.[s4r](U)p.[s4r](A)p.[s4r](C)p.[s4r](G)p.r(T)p.r(T)}$$$RNA1{StrandType:ss}|RNA2{StrandType:as}$”: the target mRNA knockdown was 0%. The same measure for “RNA1{r(A)p.r(U)p.r(C)p.m(G)p.r(A)p.r(C)p.r(C)p.m(U)p.r(G)p.r(A)p.r(A)p.r(G)p.r(G)p.r(A)p.r(G)p.m(U)p.r(A)p.r(C)p.r(G)p.r(T)p.r(T)}|RNA2{r(C)p.r(G)p.m(U)p.r(A)p.r(C)p.r(U)p.r(C)p.r(C)p.r(U)p.r(U)p.m(C)p.r(A)p.r(G)p.r(G)p.r(U)p.r(C)p.r(G)p.r(A)p.r(U)p.r(T)p.r(T)}$$$RNA1{StrandType:ss}|RNA2{StrandType:as}$”: 29%. For the substance “RNA1{[fl2r](A)p.r(A)p.[fl2r](C)p.r(C)p.[fl2r](C)p.r(A)p.[fl2r](C)p.r(C)p.[fl2r](A)p.r(C)p.[fl2r](A)p.r(G)p.[fl2r](C)p.r(U)p.[fl2r](A)p.r(G)p.[fl2r](A)p.r(A)p.[fl2r](C)p.r(U)p.r(U)}|RNA2{[fl2r](G)p.r(U)p.r(U)p.r(C)p.r(U)p.r(A)p.[fl2r](G)p.r(C)p.r(U)p.[fl2r](G)p.r(U)p.[fl2r](G)p.[fl2r](G)p.r(U)p.[fl2r](G)p.[fl2r](G)p.[fl2r](G)p.r(U)p.r(U)p.r(U)p.r(U)}$$$RNA1{StrandType:ss}|RNA2{StrandType:as}$”, the target mRNA knockdown is 57%. On to “RNA1{r(A)p.r(G)p.r(U)p.r(C)p.r(C)p.r(C)p.m(U)p.r(G)p.r(G)p.r(A)p.r(G)p.r(C)p.r(C)p.r(U)p.m(U)p.r(A)p.r(A)p.r(A)p.r(C)p.r(T)p.r(T)}|RNA2{r(G)p.r(U)p.r(U)p.m(U)p.r(A)p.r(A)p.r(G)p.r(G)p.r(C)p.r(U)p.r(C)p.m(C)p.r(A)p.r(G)p.r(G)p.r(G)p.r(A)p.r(C)p.r(U)p.r(T)p.r(T)}$$$RNA1{StrandType:ss}|RNA2{StrandType:as}$”, for which the target mRNA knockdown is 65%. The result for “RNA1{r(G)p.[fl2r](C)p.r(A)p.r(G)p.[fl2r](C)p.r(A)p.[fl2r](C)p.r(G)p.r(A)p.[fl2r](C)p.[fl2r](U)p.[fl2r](U)p.[fl2r](C)p.[fl2r](U)p.[fl2r](U)p.[fl2r](C)p.r(A)p.r(A)p.r(G)p.r(T)p.r(T)}|RNA2{r(C)p.r(U)p.r(U)p.r(G)p.r(A)p.r(A)p.r(G)p.r(A)p.r(A)p.r(G)p.r(U)p.r(C)p.r(G)p.r(U)p.r(G)p.r(C)p.r(U)p.r(G)p.r(C)p.r(T)p.r(T)}$$$RNA1{StrandType:ss}|RNA2{StrandType:as}$” reads 92%. The same measure for “RNA1{r(A)p.r(G)p.r(C)p.r(C)p.[fl2r](C)p.r(A)p.r(G)p.r(A)p.[fl2r](U)p.r(A)p.r(G)p.r(C)p.r(U)p.r(C)p.r(U)p.r(U)p.[fl2r](C)p.r(A)p.r(G)p.r(T)p.r(T)}|RNA2{r(C)p.[fl2r](U)p.r(G)p.r(A)p.r(A)p.r(G)p.r(A)p.r(G)p.r(C)p.[fl2r](U)p.r(A)p.r(U)p.r(C)p.[fl2r](U)p.r(G)p.r(G)p.r(G)p.r(C)p.r(U)p.r(T)p.r(T)}$$$RNA1{StrandType:ss}|RNA2{StrandType:as}$”: 61%. The result for “RNA1{m(U)p.r(C)p.m(C)p.r(C)p.m(U)p.r(U)p.m(C)p.r(C)p.m(A)p.r(C)p.m(C)p.r(G)p.m(C)p.r(C)p.m(A)p.r(U)p.m(A)p.r(U)p.m(U)p.r(T)p.r(T)}|RNA2{r(A)p.r(A)p.r(U)p.r(A)p.r(U)p.r(G)p.r(G)p.r(C)p.r(G)p.r(G)p.r(U)p.r(G)p.r(G)p.r(A)p.r(A)p.r(G)p.r(G)p.r(G)p.r(A)p.r(T)p.r(T)}$$$RNA1{StrandType:ss}|RNA2{StrandType:as}$” reads 11%; that for “RNA1{r(U)p.r(C)p.r(C)p.r(U)p.r(C)p.r(G)p.r(U)p.r(C)p.r(G)p.r(U)p.r(C)p.r(U)p.r(G)p.r(U)p.r(U)p.r(C)p.m(U)p.r(A)p.r(A)p.r(T)p.r(T)}|RNA2{r(U)p.m(U)p.r(A)p.r(G)p.r(A)p.r(A)p.r(C)p.r(A)p.r(G)p.r(A)p.r(C)p.r(G)p.r(A)p.r(C)p.r(G)p.r(A)p.r(G)p.r(G)p.r(A)p.r(T)p.r(T)}$$$RNA1{StrandType:ss}|RNA2{StrandType:as}$”, 84%; that for “RNA1{m(C)p.r(G)p.m(G)p.r(A)p.m(U)p.r(C)p.m(U)p.r(A)p.m(C)p.r(A)p.m(C)p.r(C)p.m(U)p.r(U)p.m(C)p.r(A)p.m(A)p.r(G)p.m(A)p.r(T)p.r(T)}|RNA2{m(U)p.r(C)p.m(U)p.m(U)p.r(G)p.r(A)p.r(A)p.r(G)p.r(G)p.m(U)p.r(G)p.m(U)p.r(A)p.r(G)p.r(A)p.m(U)p.r(C)p.r(C)p.r(G)p.r(T)p.r(T)}$$$RNA1{StrandType:ss}|RNA2{StrandType:as}$”, 29%. Take “RNA1{m(C)p.r(U)p.m(A)p.r(G)p.m(U)p.r(C)p.m(G)p.r(A)p.m(A)p.r(A)p.m(G)p.r(A)p.m(A)p.r(A)p.m(A)p.r(C)p.m(G)p.r(G)p.m(G)p.r(T)p.r(T)}|RNA2{r(C)p.r(C)p.r(C)p.r(G)p.r(U)p.r(U)p.r(U)p.r(U)p.r(C)p.r(U)p.r(U)p.r(U)p.r(C)p.r(G)p.m(A)p.r(C)p.r(U)p.m(A)p.r(G)p.r(T)p.r(T)}$$$RNA1{StrandType:ss}|RNA2{StrandType:as}$”: the target mRNA knockdown is 23%. The result for “RNA1{r(C)p.r(G)p.m(C)p.r(C)p.r(C)p.m(C)p.r(C)p.r(C)p.r(U)p.m(C)p.r(A)p.r(A)p.r(G)p.r(C)p.m(U)p.r(A)p.r(C)p.r(C)p.r(G)p.r(T)p.r(T)}|RNA2{r(C)p.r(G)p.r(G)p.m(U)p.r(A)p.r(G)p.r(C)p.r(U)p.m(U)p.r(G)p.r(A)p.r(G)p.r(G)p.r(G)p.r(G)p.r(G)p.r(G)p.r(C)p.r(G)p.r(T)p.r(T)}$$$RNA1{StrandType:ss}|RNA2{StrandType:as}$” reads 72%.

These data come from the OligoGym collection.
